# Measured values taken from US20220389061A1, “IMMUNOMODULATORS” (priority 2019, published 2022).
# Where two headings read alike, the source gives them in different places. Starred links: 1 amine or outer side, 2 acyl side, 3 side chain; linkers in the order of their positions; H or OH if unused. Positions of bridges follow the written chain, without caps; N, C: chain ends. Non-standard residues stand in square brackets, D forms with d. Residues, ends and D or L forms follow the SMILES beside them. Groups on a side chain read outwards from the residue. *: point of attachment. Trp(1-CH2COOH) = N[C@@H](Cc1cn(CC(=O)O)c2ccccc12)C(=O)O; X65 = CC(C)(C)OC(=O)Nc1ccc(NC(=S)*)cc1; X13 = O=[N+]([O-])c1ccc(NC(=S)*)cc1; X67 = S=C(Nc1c(Cl)c(Cl)cc(Cl)c1Cl)*; X31 = S=C(Nc1cccc2c(Cl)c[nH]c12)*; Hyp = O=C(O)[C@@H]1C[C@@H](O)CN1; X19 = CCOC(=O)c1ccc(NC(=S)*)cc1; X28 = Cc1ccc(Cl)c(NC(=S)*)c1Cl; NMeNle = CCCC[C@H](NC)C(=O)O; X7 = S=C(Nc1ccc2cc[nH]c2c1)*; X85 = S=C(Nc1c(Cl)cccc1Cl)*; X2 = c1ccc(-c2ccccc2N*)cc1; NMeA = CN[C@@H](C)C(=O)O; Dab = NCC[C@H](N)C(=O)O; X45 = c1ccc2sc(N*)cc2c1; Dap = NC[C@H](N)C(=O)O; CO = O=C([*:1])[*:2]
# Molecular target: T1, PD-1/PD-L1 (Homo sapiens, UniProt Q9NZQ7)
# T1 construct: TVMV protease site linker (C); made in house; host or cells: HEK293T cells
# T1 sequence (Q9NZQ7 18-239): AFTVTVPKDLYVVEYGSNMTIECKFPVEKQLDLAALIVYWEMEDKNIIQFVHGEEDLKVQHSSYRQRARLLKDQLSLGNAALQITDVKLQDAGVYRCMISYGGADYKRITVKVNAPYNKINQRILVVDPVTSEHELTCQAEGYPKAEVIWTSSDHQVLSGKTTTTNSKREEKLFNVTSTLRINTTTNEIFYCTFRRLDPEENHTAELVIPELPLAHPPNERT
# Test: PD-1/PD-L1 Homogenous Time-Resolved Fluorescence (HTRF) binding assay
# Outline: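 HTRF read-out using europium cryptate anti-Ig (1 nM) and APC anti-His (20 nM) on extracellular-domain fusion proteins in dPBS/0.1% BSA/0.05% Tween-20. Inhibitor first incubated 15 min with 10 nM PD-L1-His, followed by 20 nM PD-1-Ig for another 15 min.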
# [1] = PD-L1-His 10 nM pre-incubated with inhibitor, PD-1-Ig 20 nM, read-out: HTRF IC50
IC50 [1] [nM],SMILES,further results
4.1,CCCC[C@H]1C(=O)N(C)[C@@H](CCCC)C(=O)N[C@@H](CC(C)C)C(=O)N[C@H](C(=O)NCC(N)=O)CSCC(=O)N[C@@H](Cc2ccc(O)cc2)C(=O)N(C)[C@@H](C)C(=O)N[C@@H](CC(N)=O)C(=O)N2CCC[C@H]2C(=O)N[C@@H](CNC(=S)Nc2ccc3cc[nH]c3c2)C(=O)N[C@@H](CC(C)C)C(=O)N2C[C@H](O)C[C@H]2C(=O)N[C@@H](Cc2c[nH]c3ccccc23)C(=O)N[C@@H](CCN)C(=O)N[C@@H](Cc2cn(CC(=O)O)c3ccccc23)C(=O)N1C [Example 3049] ({CH2CO}-Y[NMeA]NP[Dap](X7)L[Hyp]W[Dab][Trp(1-CH2COOH)][NMeNle][NMeNle]LCG-NH2; thioether N-14),–
4,CCCC[C@H]1C(=O)N(C)[C@@H](CCCC)C(=O)N[C@@H](CC(C)C)C(=O)N[C@H](C(=O)NCC(N)=O)CSCC(=O)N[C@@H](Cc2ccc(O)cc2)C(=O)N(C)[C@@H](C)C(=O)N[C@@H](CC(N)=O)C(=O)N2CCC[C@H]2C(=O)N[C@@H](CNC(=S)Nc2ccc(C(=O)OCC)cc2)C(=O)N[C@@H](CC(C)C)C(=O)N2C[C@H](O)C[C@H]2C(=O)N[C@@H](Cc2c[nH]c3ccccc23)C(=O)N[C@@H](CCN)C(=O)N[C@@H](Cc2cn(CC(=O)O)c3ccccc23)C(=O)N1C [Example 1042] ({CH2CO}-Y[NMeA]NP[Dap](X19)L[Hyp]W[Dab][Trp(1-CH2COOH)][NMeNle][NMeNle]LCG-NH2; thioether N-14),–
–,CCCC[C@H]1C(=O)N(C)[C@@H](CCCC)C(=O)N[C@@H](CC(C)C)C(=O)N[C@H](C(=O)NCC(N)=O)CSCC(=O)N[C@@H](Cc2ccc(O)cc2)C(=O)N(C)[C@@H](C)C(=O)N[C@@H](CC(N)=O)C(=O)N2CCC[C@H]2C(=O)N[C@@H](CNC(=S)Nc2ccc([N+](=O)[O-])cc2)C(=O)N[C@@H](CC(C)C)C(=O)N2C[C@H](O)C[C@H]2C(=O)N[C@@H](Cc2c[nH]c3ccccc23)C(=O)N[C@@H](CCNC(=S)Nc2ccc([N+](=O)[O-])cc2)C(=O)N[C@@H](Cc2cn(CC(=O)O)c3ccccc23)C(=O)N1C [Example 1025] ({CH2CO}-Y[NMeA]NP[Dap](X13)L[Hyp]W[Dab](X13)[Trp(1-CH2COOH)][NMeNle][NMeNle]LCG-NH2; thioether N-14),IC50: 0.8 nM
2.4,CCCC[C@H]1C(=O)N(C)[C@@H](CCCC)C(=O)N[C@@H](CC(C)C)C(=O)N[C@H](C(=O)NCC(N)=O)CSCC(=O)N[C@@H](Cc2ccc(O)cc2)C(=O)N(C)[C@@H](C)C(=O)N[C@@H](CC(N)=O)C(=O)N2CCC[C@H]2C(=O)N[C@@H](CNC(=S)Nc2c(Cl)cccc2Cl)C(=O)N[C@@H](CC(C)C)C(=O)N2C[C@H](O)C[C@H]2C(=O)N[C@@H](Cc2c[nH]c3ccccc23)C(=O)N[C@@H](CCN)C(=O)N[C@@H](Cc2cn(CC(=O)O)c3ccccc23)C(=O)N1C [Example 1038] ({CH2CO}-Y[NMeA]NP[Dap](X85)L[Hyp]W[Dab][Trp(1-CH2COOH)][NMeNle][NMeNle]LCG-NH2; thioether N-14),–
9.2,CCCC[C@H]1C(=O)N(C)[C@@H](CCCC)C(=O)N[C@@H](CC(C)C)C(=O)N[C@H](C(=O)NCC(N)=O)CSCC(=O)N[C@@H](Cc2ccc(O)cc2)C(=O)N(C)[C@@H](C)C(=O)N[C@@H](CC(N)=O)C(=O)N2CCC[C@H]2C(=O)N[C@@H](CNC(=O)Nc2cc3ccccc3s2)C(=O)N[C@@H](CC(C)C)C(=O)N2C[C@H](O)C[C@H]2C(=O)N[C@@H](Cc2c[nH]c3ccccc23)C(=O)N[C@@H](CCN)C(=O)N[C@@H](Cc2cn(CC(=O)O)c3ccccc23)C(=O)N1C [Example 3032] ({CH2CO}-Y[NMeA]NP[Dap]([CO-X45])L[Hyp]W[Dab][Trp(1-CH2COOH)][NMeNle][NMeNle]LCG-NH2; thioether N-14),–
9.3,CCCC[C@H]1C(=O)N(C)[C@@H](CCCC)C(=O)N[C@@H](CC(C)C)C(=O)N[C@H](C(=O)NCC(N)=O)CSCC(=O)N[C@@H](Cc2ccc(O)cc2)C(=O)N(C)[C@@H](C)C(=O)N[C@@H](CC(N)=O)C(=O)N2CCC[C@H]2C(=O)N[C@@H](CNC(=S)Nc2c(Cl)ccc(C)c2Cl)C(=O)N[C@@H](CC(C)C)C(=O)N2C[C@H](O)C[C@H]2C(=O)N[C@@H](Cc2c[nH]c3ccccc23)C(=O)N[C@@H](CCNC(=S)Nc2c(Cl)ccc(C)c2Cl)C(=O)N[C@@H](Cc2cn(CC(=O)O)c3ccccc23)C(=O)N1C [Example 1113] ({CH2CO}-Y[NMeA]NP[Dap](X28)L[Hyp]W[Dab](X28)[Trp(1-CH2COOH)][NMeNle][NMeNle]LCG-NH2; thioether N-14),–
–,CCCC[C@H]1C(=O)N(C)[C@@H](CCCC)C(=O)N[C@@H](CC(C)C)C(=O)N[C@H](C(=O)NCC(N)=O)CSCC(=O)N[C@@H](Cc2ccc(O)cc2)C(=O)N(C)[C@@H](C)C(=O)N[C@@H](CC(N)=O)C(=O)N2CCC[C@H]2C(=O)N[C@@H](CNC(=O)Nc2ccccc2-c2ccccc2)C(=O)N[C@@H](CC(C)C)C(=O)N2C[C@H](O)C[C@H]2C(=O)N[C@@H](Cc2c[nH]c3ccccc23)C(=O)N[C@@H](CCNC(=O)Nc2ccccc2-c2ccccc2)C(=O)N[C@@H](Cc2cn(CC(=O)O)c3ccccc23)C(=O)N1C [Example 1126] ({CH2CO}-Y[NMeA]NP[Dap]([CO-X2])L[Hyp]W[Dab]([CO-X2])[Trp(1-CH2COOH)][NMeNle][NMeNle]LCG-NH2; thioether N-14),"IC50 (read-out: HTRF IC50, PD-L1-His 10 nM pre-incubated with inhibitor, PD-1-Ig 20 nM): 1 nM"
3.9,CCCC[C@H]1C(=O)N(C)[C@@H](CCCC)C(=O)N[C@@H](CC(C)C)C(=O)N[C@H](C(=O)NCC(N)=O)CSCC(=O)N[C@@H](Cc2ccc(O)cc2)C(=O)N(C)[C@@H](C)C(=O)N[C@@H](CC(N)=O)C(=O)N2CCC[C@H]2C(=O)N[C@@H](CNC(=S)Nc2ccc(NC(=O)OC(C)(C)C)cc2)C(=O)N[C@@H](CC(C)C)C(=O)N2C[C@H](O)C[C@H]2C(=O)N[C@@H](Cc2c[nH]c3ccccc23)C(=O)N[C@@H](CCN)C(=O)N[C@@H](Cc2cn(CC(=O)O)c3ccccc23)C(=O)N1C [Example 1040] ({CH2CO}-Y[NMeA]NP[Dap](X65)L[Hyp]W[Dab][Trp(1-CH2COOH)][NMeNle][NMeNle]LCG-NH2; thioether N-14),–
3.1,CCCC[C@H]1C(=O)N(C)[C@@H](CCCC)C(=O)N[C@@H](CC(C)C)C(=O)N[C@H](C(=O)NCC(N)=O)CSCC(=O)N[C@@H](Cc2ccc(O)cc2)C(=O)N(C)[C@@H](C)C(=O)N[C@@H](CC(N)=O)C(=O)N2CCC[C@H]2C(=O)N[C@@H](CN)C(=O)N[C@@H](CC(C)C)C(=O)N2C[C@H](O)C[C@H]2C(=O)N[C@@H](Cc2c[nH]c3ccccc23)C(=O)N[C@@H](CCNC(=S)Nc2cccc3c(Cl)c[nH]c23)C(=O)N[C@@H](Cc2cn(CC(=O)O)c3ccccc23)C(=O)N1C [Example 3031] ({CH2CO}-Y[NMeA]NP[Dap]L[Hyp]W[Dab](X31)[Trp(1-CH2COOH)][NMeNle][NMeNle]LCG-NH2; thioether N-14),–
2.4,CCCC[C@H]1C(=O)N(C)[C@@H](CCCC)C(=O)N[C@@H](CC(C)C)C(=O)N[C@H](C(=O)NCC(N)=O)CSCC(=O)N[C@@H](Cc2ccc(O)cc2)C(=O)N(C)[C@@H](C)C(=O)N[C@@H](CC(N)=O)C(=O)N2CCC[C@H]2C(=O)N[C@@H](CNC(=S)Nc2c(Cl)c(Cl)cc(Cl)c2Cl)C(=O)N[C@@H](CC(C)C)C(=O)N2C[C@H](O)C[C@H]2C(=O)N[C@@H](Cc2c[nH]c3ccccc23)C(=O)N[C@@H](CCNC(=S)Nc2c(Cl)c(Cl)cc(Cl)c2Cl)C(=O)N[C@@H](Cc2cn(CC(=O)O)c3ccccc23)C(=O)N1C [Example 1134] ({CH2CO}-Y[NMeA]NP[Dap](X67)L[Hyp]W[Dab](X67)[Trp(1-CH2COOH)][NMeNle][NMeNle]LCG-NH2; thioether N-14),–
